Laboratory results: the NIST ThermoML archive (doi:10.1021/je800316b)

Conditions: Liquid

CCCCCCCCCCn1cc[n+](C)c1.O=S(=O)([N-]S(=O)(=O)C(F)(F)F)C(F)(F)F
mass density [kg/m3]
Conditions	100 kPa	2500 kPa	5000 kPa	7500 kPa	10000 kPa	15000 kPa	20000 kPa	25000 kPa	30000 kPa	35000 kPa
293.15 K	1282.4	1285.6	1287.4	1289.3	1291.1	1294.6	1298.1	1301.4	1304.7	1308
298.15 K	1278	1280.8	1282.7	1284.6	1286.4	1290	1293.5	1297	1300.3	1303.6
303.15 K	1273.6	1276.4	1278.3	1280.3	1282.1	1285.8	1289.4	1292.9	1296.3	1299.6
313.15 K	1265.3	1267.3	1269.3	1271.3	1273.2	1277	1280.7	1284.2	1287.7	1291.1
333.15 K	1245.5	1247.7	1249.8	1251.9	1254	1258	1261.9	1265.7	1269.4	1273
353.15 K	1228.6	1230.9	1233.2	1235.5	1237.6	1242	1246.2	1250.2	1254.1	1257.9
373.15 K	1209.6	1212.4	1214.8	1217.3	1219.6	1224.2	1228.6	1232.9	1237	1241.1
393.15 K	1191.8	1195.8	1198.3	1200.9	1203.4	1208.2	1212.8	1217.3	1221.7	1225.9

CCn1cc[n+](CC)c1.O=S(=O)([N-]S(=O)(=O)C(F)(F)F)C(F)(F)F [1,3-diethylimidazolium bis[(trifluoromethyl)sulfonyl]imide]
mass density [kg/m3]
Conditions	100 kPa	2500 kPa	5000 kPa	7500 kPa	10000 kPa	15000 kPa	20000 kPa	25000 kPa	30000 kPa	35000 kPa
293.15 K	1469.2	1471.1	1473.1	1475	1476.9	1480.8	1484.2	1487.9	1491.5	1495.2
298.15 K	1463.2	1465.5	1467.6	1469.5	1471.4	1475.3	1479	1482.5	1486.1	1489.5
303.15 K	1457.7	1460.1	1462.1	1463.9	1466.1	1469.8	1473.6	1477.1	1480.9	1484.3
313.15 K	1447.3	1449.6	1451.6	1453.7	1455.8	1459.7	1463.5	1467.2	1470.9	1474.6
333.15 K	1425.7	1428.2	1430.4	1432.6	1434.8	1439.1	1443.2	1447.2	1450.9	1454.8
353.15 K	1404.5	1407.5	1409.9	1412.2	1414.5	1419	1423.4	1427.5	1431.6	1435.6
373.15 K	1384.1	1386.9	1389.5	1391.9	1394.4	1399.1	1403.7	1408.1	1412.4	1416.7
393.15 K	1364.2	1367.2	1369.9	1372.5	1375.1	1380.2	1384.9	1389.6	1394.3	1398.6

CCOS(=O)(=O)[O-].CCn1cc[n+](C)c1 [1-ethyl-3-methylimidazolium ethyl sulfate]
mass density [kg/m3]
Conditions	100 kPa	2500 kPa	5000 kPa	7500 kPa	10000 kPa	15000 kPa	20000 kPa	25000 kPa	30000 kPa	35000 kPa
293.15 K	1246.9	1249	1250.2	1251.3	1252.3	1254.3	1256.5	1258.5	1260.5	1262.4
298.15 K	1244.3	1245.2	1246.3	1247.4	1248.4	1250.6	1252.7	1254.8	1256.6	1258.7
303.15 K	1240.8	1241.6	1242.7	1243.8	1244.9	1247	1249.1	1251.1	1253.2	1255.2
313.15 K	1233.1	1234	1235.1	1236.2	1237.3	1239.5	1241.6	1243.7	1245.8	1247.9
333.15 K	1218.3	1219.2	1220.4	1221.6	1222.7	1225	1227.2	1229.3	1231.5	1233.6
353.15 K	1204.2	1205.3	1206.6	1207.8	1209	1211.4	1213.8	1216.1	1218.4	1220.6
373.15 K	1190.1	1191.3	1192.6	1193.9	1195.2	1197.7	1200.2	1202.6	1204.9	1207.3
393.15 K	1176.6	1178	1179.3	1180.7	1182	1184.6	1187.2	1189.7	1192.2	1194.6

CCn1cc[n+](C)c1.COS(=O)(=O)[O-] [1-ethyl-3-methylimidazolium methylsulfate]
mass density [kg/m3]
Conditions	100 kPa	2500 kPa	5000 kPa	7500 kPa	10000 kPa	15000 kPa	20000 kPa	25000 kPa	30000 kPa	35000 kPa
293.15 K	1292.1	1293	1294	1295	1296	1298	1299.9	1301.8	1303.7	1305.6
298.15 K	1288	1289.1	1290.1	1291.1	1292.1	1294.1	1296.1	1298	1300	1301.9
303.15 K	1283.3	1284.3	1285.4	1286.4	1287.4	1289.5	1291.4	1293.4	1295.3	1297.3
313.15 K	1276.6	1277.8	1278.9	1279.9	1281	1283	1285.1	1287.1	1289.1	1291.1
333.15 K	1260.9	1262.3	1263.4	1264.5	1265.6	1267.8	1269.9	1272	1274	1276.1
353.15 K	1245.5	1247.5	1248.7	1249.9	1251.1	1253.4	1255.6	1257.8	1260	1262.2
373.15 K	1231.4	1232.8	1234	1235.2	1236.4	1238.8	1241.2	1243.5	1245.7	1248
393.15 K	1218.1	1219.2	1220.5	1221.8	1223.1	1225.5	1227.9	1230.3	1232.6	1234.9
